The values below are quoted from earlier work in patent US20250065012A1, “DIRECTIONAL AND TEMPORAL RELEASE OF DRUGS FROM MEDICAL DEVICES” (NANO THERAPEUTICS PRIVATE LIMITED, priority 2022, published 2025).

Counter-ions that a name gives are not always drawn.

The conditions of data set [1]: injected intravenously.
In another data set the test system is platelet aggregation. Particulars: after systemic administration.

Take `CCCCS(=O)(=O)N[C@@H](Cc1ccc(OCCCCC2CCNCC2)cc1)C(=O)O` [Tirofiban HCl]: in data set [1], the “increase in bleeding time” value is given as 3-4 fold and the “increase in clotting time” value was 3-4 fold.

Consider `CCCCS(=O)(=O)N[C@@H](Cc1ccc(OCCCCC2CCNCC2)cc1)C(=O)O` [Tirofiban], for which the platelet aggregation inhibition entry with platelet aggregation was “up to 96%”.
